Results published in publication PMC8795149, “Characterization of a novel non-steroidal glucocorticoid receptor agonist optimized for topical treatment” (Scientific Reports, 2022).
Blank lines part the entries; values can stand above or below the compound they belong to.

Assays:
[1] = system: atopic dermatitis; design: method as in PMID 25614148; conditions: atopic dermatitis patients; cited from earlier work
[2] = system: skin atrophy; design: method as in PMID 23639214; conditions: healthy subjects; cited from earlier work
[3] = target: T1, mineralocorticoid receptor (MR) (Homo sapiens, UniProt P08235); assay: MR agonist assay, MR-luciferase reporter cells; type: cell-based; conditions: 24 h incubation; 'in contrast' = unlike LEO 134310, which gave no significant activation
T1 sequence (P08235 1-984): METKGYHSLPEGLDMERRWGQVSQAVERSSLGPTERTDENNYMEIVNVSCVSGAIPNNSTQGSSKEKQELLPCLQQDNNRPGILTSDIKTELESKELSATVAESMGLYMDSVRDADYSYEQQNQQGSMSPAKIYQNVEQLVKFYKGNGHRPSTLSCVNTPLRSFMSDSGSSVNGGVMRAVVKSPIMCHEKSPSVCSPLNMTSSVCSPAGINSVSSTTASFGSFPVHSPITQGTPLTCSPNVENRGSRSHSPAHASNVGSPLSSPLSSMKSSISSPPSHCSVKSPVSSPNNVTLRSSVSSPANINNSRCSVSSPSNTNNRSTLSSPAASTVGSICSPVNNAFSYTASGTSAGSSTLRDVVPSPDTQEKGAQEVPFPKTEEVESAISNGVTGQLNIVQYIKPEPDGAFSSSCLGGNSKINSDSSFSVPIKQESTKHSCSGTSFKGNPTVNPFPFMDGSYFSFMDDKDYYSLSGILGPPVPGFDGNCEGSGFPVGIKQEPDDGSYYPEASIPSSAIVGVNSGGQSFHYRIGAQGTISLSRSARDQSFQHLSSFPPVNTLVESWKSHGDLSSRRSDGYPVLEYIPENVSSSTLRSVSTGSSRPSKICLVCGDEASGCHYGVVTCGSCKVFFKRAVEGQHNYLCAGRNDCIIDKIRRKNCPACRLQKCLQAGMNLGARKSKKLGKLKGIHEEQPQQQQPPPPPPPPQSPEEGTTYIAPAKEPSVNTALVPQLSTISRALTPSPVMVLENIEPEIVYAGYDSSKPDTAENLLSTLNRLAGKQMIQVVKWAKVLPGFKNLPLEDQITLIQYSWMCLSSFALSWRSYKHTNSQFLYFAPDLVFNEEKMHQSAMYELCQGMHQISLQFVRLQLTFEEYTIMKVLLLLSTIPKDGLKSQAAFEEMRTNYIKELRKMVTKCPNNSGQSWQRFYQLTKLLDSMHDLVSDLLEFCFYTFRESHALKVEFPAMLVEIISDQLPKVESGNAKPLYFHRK
Protocol: Assays were performed at Indigo Biosciences according to standard protocols. In brief, MR-luciferase reporter cells were incubated with medium containing charcoal-stripped fetal bovine serum and incubated with test and reference compounds for 24 h before measuring luminescence. Data were fitted by the means of four parameter logistic regression.

[4] = system: HPA axis; design: method as in PMID 3553247; conditions: topical; cited from earlier work

SMILES: C[C@@H]1C[C@H]2[C@@H]3C[C@H](F)C4=CC(=O)C=C[C@]4(C)[C@@]3(F)[C@@H](O)C[C@]2(C)[C@@]1(OC(=O)C1C(C)(C)C1(C)C)C(=O)OCC#N [GW870086]
- Clinical efficacy [1]: did not achieve significant clinical efficacy
- Induction of skin atrophy [2]: not to induce skin atrophy

- Activation of MR (luciferase activity) [3]: positive control
SMILES: C[C@]12CCC(=O)C=C1CC[C@@H]1[C@@H]2[C@@H](O)C[C@]2(C=O)[C@@H](C(=O)CO)CC[C@@H]12 [aldosterone]

SMILES: CCC(=O)OCC(=O)[C@@]1(OC(=O)CC)[C@@H](C)C[C@H]2[C@@H]3CCC4=CC(=O)C=C[C@]4(C)[C@@]3(F)[C@@H](O)C[C@@]21C [betamethasone dipropionate]
- Effect on morning plasma cortisol [4]: reduce morning plasma cortisol significantly
